From ChEMBL document CHEMBL1201862, “PubChem BioAssay data set” (2004)
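48-hour exposure; five concentrations; linearly interpolated endpoints. The concentration for 50% growth inhibition is given as GI50.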 The source made the active and inactive calls. No stated cut-off is given here; in the data, active = GI50 up to about 1.1 µM and inactive = higher.

Legend:
Test in all cases: inhibition of tumour cell growth, NCI panel, 48 h
Hs-578T = tested on: Hs-578T
SF-539 = tested on: SF-539
CCRF-CEM = tested on: CCRF-CEM
NCI-H460 = tested on: NCI-H460
A549 = tested on: A549
OVCAR-5 = tested on: OVCAR-5
EKVX = tested on: EKVX
SK-MEL-2 = tested on: SK-MEL-2
ACHN = tested on: ACHN
786-0 = tested on: 786-0
UACC-62 = tested on: UACC-62
OVCAR-8 = tested on: OVCAR-8
MDA-N = tested on: MDA-N
SNB-19 = tested on: SNB-19
LOX IMVI = tested on: LOX IMVI
OVCAR-4 = tested on: OVCAR-4
CAKI-1 = tested on: CAKI-1
NCI-H226 = tested on: NCI-H226
OVCAR-3 = tested on: OVCAR-3
SR = tested on: SR

SMILES | GI50 (Hs-578T) | GI50 (SF-539) | GI50 (CCRF-CEM) | GI50 (NCI-H460) | GI50 (A549) | GI50 (OVCAR-5) | GI50 (EKVX) | GI50 (SK-MEL-2) | GI50 (ACHN) | GI50 (786-0) | GI50 (UACC-62) | GI50 (OVCAR-8) | GI50 (MDA-N) | GI50 (SNB-19) | GI50 (LOX IMVI) | GI50 (OVCAR-4) | GI50 (CAKI-1) | GI50 (NCI-H226) | GI50 (OVCAR-3) | GI50 (SR)
CC(C)(O)C1COC2=C1C(=O)c1ccccc1C2=O (stereo unspecified) | 27 µM (inactive) | 43.6 µM (inactive) | 46.2 µM (inactive) | 54 µM (inactive) | > 100 µM (inactive) | 23.7 µM (inactive) | 32.3 µM (inactive) | 29.7 µM (inactive) | 48.2 µM (inactive) | 41.3 µM (inactive) | 22.9 µM (inactive) | 22.5 µM (inactive) | 18.6 µM (inactive) | > 100 µM (inactive) | 19.2 µM (inactive) | 71 µM (inactive) | 60.7 µM (inactive) | 32.5 µM (inactive) | 24.9 µM (inactive) | 
OC1NC2Nc3ccccc3NC2NC1O (stereo unspecified) | > 100 µM (inactive) | > 100 µM (inactive) | > 100 µM (inactive) | > 100 µM (inactive) | > 100 µM (inactive) | > 100 µM (inactive) | > 100 µM (inactive) | > 100 µM (inactive) | > 100 µM (inactive) | > 100 µM (inactive) | > 100 µM (inactive) | > 100 µM (inactive) |  | > 100 µM (inactive) | > 100 µM (inactive) | > 100 µM (inactive) | > 100 µM (inactive) | > 100 µM (inactive) | > 100 µM (inactive) | > 100 µM (inactive)
CCOP(=O)(OCC)[C@]12C[C@@H](C)C=C[C@H]1COC2=O | > 100 µM (inactive) | > 100 µM (inactive) | > 100 µM (inactive) | > 100 µM (inactive) | > 100 µM (inactive) | > 100 µM (inactive) | > 100 µM (inactive) | > 100 µM (inactive) | > 100 µM (inactive) | > 100 µM (inactive) | > 100 µM (inactive) | > 100 µM (inactive) | > 100 µM (inactive) | > 100 µM (inactive) | > 100 µM (inactive) | > 100 µM (inactive) | > 100 µM (inactive) |  | > 100 µM (inactive) | > 100 µM (inactive)
N#CC1=C(N)C(C#N)(C#N)C(c2ccc(F)cc2)C=C1C1CC1 (stereo unspecified) | 16.5 µM (inactive) | 0.597 µM (active) | 4.71 µM (inactive) | 5.2 µM (inactive) | 13.8 µM (inactive) | 12.6 µM (inactive) | 17.6 µM (inactive) | 6.52 µM (inactive) | 12.9 µM (inactive) | 9.84 µM (inactive) | 8.24 µM (inactive) | 9.93 µM (inactive) | 2.27 µM (inactive) | 13.2 µM (inactive) | 3.94 µM (inactive) |  | 15 µM (inactive) |  | 5.27 µM (inactive) | 3.27 µM (inactive)
COCCCNc1c2ccccc2nc2ccccc12 | 2.78 µM (inactive) | 2.26 µM (inactive) | 5.26 µM (inactive) | 1.54 µM (inactive) | 2.92 µM (inactive) | 2.17 µM (inactive) | 3.59 µM (inactive) | 2.17 µM (inactive) | 0.813 µM (active) | 3.57 µM (inactive) | 2.18 µM (inactive) | 2.68 µM (inactive) | 3.09 µM (inactive) | 3.09 µM (inactive) | 2.22 µM (inactive) | 2.64 µM (inactive) | 1.39 µM (inactive) |  | 2.47 µM (inactive) | 2.86 µM (inactive)
O=C(Nc1ccc(Cl)c(Cl)c1)OCCN1c2ccccc2Sc2ccccc21 | > 10 µM (inactive) | > 10 µM (inactive) | > 10 µM (inactive) |  | > 10 µM (inactive) | > 10 µM (inactive) |  |  | > 10 µM (inactive) | > 10 µM (inactive) | > 10 µM (inactive) | > 10 µM (inactive) | > 10 µM (inactive) | > 10 µM (inactive) | > 10 µM (inactive) | > 10 µM (inactive) | > 10 µM (inactive) |  | > 10 µM (inactive) | > 10 µM (inactive)
Fc1c(F)c(C(F)(F)F)c(F)c(F)c1N/N=C\c1c[nH]c2ccccc12 | 8.38 µM (inactive) |  | 1.23 µM (inactive) | 1.86 µM (inactive) | 3.16 µM (inactive) | 3.94 µM (inactive) | 2.84 µM (inactive) | 2.78 µM (inactive) | 6.64 µM (inactive) | 3.44 µM (inactive) | 2.44 µM (inactive) | 6.43 µM (inactive) | 1.72 µM (inactive) | 2.86 µM (inactive) | 3.3 µM (inactive) | 2.44 µM (inactive) | 2.55 µM (inactive) |  | 1.87 µM (inactive) | 2.75 µM (inactive)
CC(Br)CN1CCOCC1 (stereo unspecified) | > 100 µM (inactive) | > 100 µM (inactive) |  | > 100 µM (inactive) | > 100 µM (inactive) | > 100 µM (inactive) | > 100 µM (inactive) | > 100 µM (inactive) | > 100 µM (inactive) | > 100 µM (inactive) | > 100 µM (inactive) | > 100 µM (inactive) |  | > 100 µM (inactive) | > 100 µM (inactive) |  | > 100 µM (inactive) | > 100 µM (inactive) | > 100 µM (inactive) | 13.9 µM (inactive)
Nc1n2nc(-c3ccccc3)sc2n[n+]1CC(=O)c1ccccc1 | 47.6 µM (inactive) | 6.78 µM (inactive) | 3.07 µM (inactive) | 11.5 µM (inactive) | 21.2 µM (inactive) | 34.8 µM (inactive) | 31.6 µM (inactive) | 38.5 µM (inactive) | 12.9 µM (inactive) | 19.9 µM (inactive) | 7.06 µM (inactive) | 15.1 µM (inactive) |  | 21.7 µM (inactive) | 11.1 µM (inactive) | 47.2 µM (inactive) | 12.3 µM (inactive) | 16.7 µM (inactive) | 14.7 µM (inactive) | 
Cc1cc2nc(N3C(=O)/C(=C/Cc4ccco4)N=C3c3ccccc3)sc2cc1C | 39.3 µM (inactive) | 41.1 µM (inactive) | 9.18 µM (inactive) | 23.6 µM (inactive) | 36.9 µM (inactive) | 24.9 µM (inactive) | 20.7 µM (inactive) | 26.8 µM (inactive) | 26.7 µM (inactive) | 27.2 µM (inactive) | 23.3 µM (inactive) | 31.6 µM (inactive) | 9.98 µM (inactive) | 49.7 µM (inactive) | 25.9 µM (inactive) | 29.5 µM (inactive) | 44.4 µM (inactive) |  | 22.3 µM (inactive) | 38.4 µM (inactive)
Cn1c(=O)c2c(nc3sc4nc5ccccc5nc4n32)n(C)c1=O | > 100 µM (inactive) | > 100 µM (inactive) | > 100 µM (inactive) | > 100 µM (inactive) | > 100 µM (inactive) | > 100 µM (inactive) | > 100 µM (inactive) |  | > 100 µM (inactive) | > 100 µM (inactive) | > 100 µM (inactive) | > 100 µM (inactive) | > 100 µM (inactive) | > 100 µM (inactive) | 92.3 µM (inactive) |  | > 100 µM (inactive) | > 100 µM (inactive) | > 100 µM (inactive) | > 100 µM (inactive)
O=C1/C(=C\c2ccc(Cl)cc2Cl)Sc2scc(-c3ccc(O)c(O)c3)[n+]21 | 27.2 µM (inactive) | 17.1 µM (inactive) | 17.7 µM (inactive) | 16 µM (inactive) | 16.9 µM (inactive) | 16.4 µM (inactive) | 19.9 µM (inactive) | 11.5 µM (inactive) | 18.8 µM (inactive) | 15.7 µM (inactive) | 7.36 µM (inactive) | 17.2 µM (inactive) | 17.5 µM (inactive) | 17.6 µM (inactive) | 16.4 µM (inactive) | 13.4 µM (inactive) | 20.1 µM (inactive) | 15.5 µM (inactive) | 6.47 µM (inactive) | 
Cc1ccc([S+]([O-])C[C@](NC(=O)OCc2ccccc2)(Sc2ccccc2)C(F)F)cc1 (stereo partly specified) | 23.9 µM (inactive) |  | 1.11 µM (active) | 17.9 µM (inactive) | 28.6 µM (inactive) | 31.6 µM (inactive) | 13.7 µM (inactive) | 27.6 µM (inactive) | 20.7 µM (inactive) | 13 µM (inactive) | 14.8 µM (inactive) | 19.1 µM (inactive) |  | 14.4 µM (inactive) | 4.16 µM (inactive) | 13.2 µM (inactive) | 21.5 µM (inactive) | 12.9 µM (inactive) | 24.3 µM (inactive) | 10.8 µM (inactive)
N#Cc1nc(Cc2cccs2)oc1N | > 100 µM (inactive) |  | 47.5 µM (inactive) |  | > 100 µM (inactive) | > 100 µM (inactive) | > 100 µM (inactive) | > 100 µM (inactive) | > 100 µM (inactive) | > 100 µM (inactive) | > 100 µM (inactive) | > 100 µM (inactive) | > 100 µM (inactive) | > 100 µM (inactive) | > 100 µM (inactive) |  | > 100 µM (inactive) |  |  | > 100 µM (inactive)
CC(C)(C)c1c(C(C)(C)C)c(=O)c1=O | > 100 µM (inactive) | > 100 µM (inactive) | > 100 µM (inactive) | > 100 µM (inactive) | > 100 µM (inactive) | > 100 µM (inactive) | > 100 µM (inactive) | > 100 µM (inactive) | > 100 µM (inactive) | > 100 µM (inactive) | > 100 µM (inactive) | > 100 µM (inactive) | > 100 µM (inactive) | > 100 µM (inactive) | > 100 µM (inactive) | > 100 µM (inactive) | > 100 µM (inactive) | > 100 µM (inactive) | > 100 µM (inactive) | 
